The subject of the test is P388 leukemia ip, CD2F1 mice, survival T/C. In words: NCI In Vivo Anticancer Drug Screen. Data for tumor model P388 Leukemia (intraperitoneal) in CD2F1 (CDF1) mice. The note with it: endpoint: median survival time, higher = longer survival. The gist of the method:
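Mice carrying the transplanted tumor received test compound or vehicle. Survival was recorded in each group, and the value is the treated-group measurement divided by that of the vehicle-treated control group.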

[1] abbreviates: dose: 50.0 mg/kg/injection, schedule: Q01DX009 (ip), vehicle: Klucel (hydroxypropylcellulose) (HPC).
Where [2] appears, read: dose: 100.0 mg/kg/injection, schedule: Q01DX009 (ip), vehicle: Klucel (hydroxypropylcellulose) (HPC).
[3] abbreviates: dose: 200.0 mg/kg/injection, schedule: Q01DX009 (ip), vehicle: Klucel (hydroxypropylcellulose) (HPC).
Setting [4] is: dose: 50.0 mg/kg/injection, schedule: Q01DX005 (ip), vehicle: Klucel (hydroxypropylcellulose) (HPC).
[5] abbreviates: dose: 100.0 mg/kg/injection, schedule: Q01DX005 (ip), vehicle: Klucel (hydroxypropylcellulose) (HPC).
Where [6] appears, read: dose: 200.0 mg/kg/injection, schedule: Q01DX005 (ip), vehicle: Klucel (hydroxypropylcellulose) (HPC).
[7] abbreviates: dose: 60.0 mg/kg/injection, schedule: Q01DX005 (ip), vehicle: Klucel (hydroxypropylcellulose) (HPC).
Setting [8] is: dose: 120.0 mg/kg/injection, schedule: Q01DX005 (ip), vehicle: Klucel (hydroxypropylcellulose) (HPC).
The mark [9] stands for this setting: dose: 50.0 mg/kg/injection, schedule: Q01DX005 (ip), vehicle: saline with Tween-80.
[10] abbreviates: dose: 100.0 mg/kg/injection, schedule: Q01DX005 (ip), vehicle: saline with Tween-80.
Setting [11] is: dose: 200.0 mg/kg/injection, schedule: Q01DX005 (ip), vehicle: saline with Tween-80.
The mark [12] stands for this setting: dose: 60.0 mg/kg/injection, schedule: Q01DX005 (ip), vehicle: saline with Tween-80.
Where [13] appears, read: dose: 120.0 mg/kg/injection, schedule: Q01DX005 (ip), vehicle: saline with Tween-80.
Setting [14] is: dose: 25.0 mg/kg/injection, schedule: Q01DX009 (ip), vehicle: saline with Tween-80.
Setting [15] is: dose: 50.0 mg/kg/injection, schedule: Q01DX009 (ip), vehicle: saline with Tween-80.
The mark [16] stands for this setting: dose: 100.0 mg/kg/injection, schedule: Q01DX009 (ip), vehicle: saline with Tween-80.
Where [17] appears, read: dose: 50.0 mg/kg/injection, schedule: Q04DX003 (ip), vehicle: saline with Tween-80.
The mark [18] stands for this setting: dose: 100.0 mg/kg/injection, schedule: Q04DX003 (ip), vehicle: saline with Tween-80.

The structures appear in SMILES notation. Where “and” joins values, the source holds several entries; their conditions need not be identical. Equal entries are not always repeated. Inconclusive results and toxic doses are left out. Square brackets hold non-standard residues; d marks the D form. Peptide text beside a SMILES is read from it. * marks the point of attachment. Nle = CCCC[CH](N)C(=O)O; Cbz = O=C(OCc1ccccc1)*

`C=COC(=O)C(Cc1ccc(Cl)cc1)NC(=O)OCc1ccccc1` (stereo not given): the T/C was 97 % of control (dose: 100.0 mg/kg/injection, schedule: Q04DX002 (ip), vehicle: Klucel (hydroxypropylcellulose) (HPC)); 91 % of control (dose: 200.0 mg/kg/injection, schedule: Q04DX002 (ip), vehicle: Klucel (hydroxypropylcellulose) (HPC)); 95 % of control (dose: 400.0 mg/kg/injection, schedule: Q04DX002 (ip), vehicle: Klucel (hydroxypropylcellulose) (HPC)).
With `Cc1ccnc(NC(O)C(Cl)(Cl)Cl)c1` (stereo not given), the T/C is, setting by setting: (dose: 25.0 mg/kg/injection, schedule: Q01DX009 (ip), vehicle: Klucel (hydroxypropylcellulose) (HPC)) 100 % of control; under setting [1], 100 % of control; under setting [2], 98 % of control; under setting [3], 100 % of control.
With `C=CC(=NC(C)C)Nc1ccccc1`, the T/C was 112 % of control (dose: 1.56 mg/kg/injection, schedule: Q01DX009 (ip), vehicle: saline); 105 % of control (dose: 3.12 mg/kg/injection, schedule: Q01DX009 (ip), vehicle: saline); 104 % of control and 113 % of control (dose: 6.25 mg/kg/injection, schedule: Q01DX009 (ip), vehicle: saline).
Regarding `CCCCC(NC(=O)OCc1ccccc1)C(=O)NC(CCSC)C(=O)O` (stereo not given) (Cbz-[Nle]-Met-OH; configuration not given here), the T/C was 96 % of control under setting [4], 111 % of control under setting [5] and 101 % of control under setting [6].
Regarding `S=C1NCCOc2ccccc21`, the T/C under setting [7] is 100 % of control and the T/C under setting [8] is 100 % of control.
For the molecule `CCC(C)([N+](=O)[O-])[N+](=O)[O-]`, the T/C is, setting by setting: (dose: 0.19 mg/kg/injection, schedule: Q01DX009 (ip), vehicle: Klucel (hydroxypropylcellulose) (HPC)) 102 % of control; (dose: 0.39 mg/kg/injection, schedule: Q01DX009 (ip), vehicle: Klucel (hydroxypropylcellulose) (HPC)) 97 % of control; (dose: 0.78 mg/kg/injection, schedule: Q01DX009 (ip), vehicle: Klucel (hydroxypropylcellulose) (HPC)) 99 % of control and 96 % of control.
Turning to `Fc1ccc(-c2nc3cc(-c4ccccc4)[nH]n3c2N=Nc2ccccc2)cc1`, the T/C runs as follows: under setting [9], 105 % of control; under setting [10], 103 % of control; under setting [11], 108 % of control.
`CP1(=O)CCc2c1ccc1ccccc21` (stereo not given): the T/C is, setting by setting: (dose: 100.0 mg/kg/injection, schedule: Q04DX002 (ip), vehicle: saline) 107 % of control; (dose: 200.0 mg/kg/injection, schedule: Q04DX002 (ip), vehicle: saline) 101 % of control.
As to `CCC(C)SSc1ccccc1C(=O)Nc1ccc(Cl)cc1` (stereo not given), the T/C is 95 % of control under setting [12]; 97 % of control under setting [13]; 99 % of control (dose: 240.0 mg/kg/injection, schedule: Q01DX005 (ip), vehicle: saline with Tween-80).
For the molecule `O=C1CC([Se]c2ccccc2)C(=O)N1` (stereo not given), the T/C by setting is: (dose: 6.25 mg/kg/injection, schedule: Q04DX003 (ip), vehicle: Klucel (hydroxypropylcellulose) (HPC)) 99 % of control; (dose: 12.5 mg/kg/injection, schedule: Q04DX003 (ip), vehicle: Klucel (hydroxypropylcellulose) (HPC)) 102 % of control and 104 % of control; (dose: 25.0 mg/kg/injection, schedule: Q04DX003 (ip), vehicle: Klucel (hydroxypropylcellulose) (HPC)) 100 % of control and 107 % of control; (dose: 50.0 mg/kg/injection, schedule: Q04DX003 (ip), vehicle: Klucel (hydroxypropylcellulose) (HPC)) 100 % of control and 105 % of control.
With `CCC(COC(=O)c1ccc(N(CC)CC)cc1)NC1CCCCC1` (stereo not given), the T/C under setting [12] is 111 % of control and the T/C under setting [13] is 90 % of control.
With `OCC(O)C(O)C(O)c1nn(-c2ccccc2)c2nc3ccc(Cl)cc3nc12` (stereo not given), the T/C under setting [4] was 90 % of control, the T/C under setting [5] was 90 % of control and the T/C under setting [6] is 89 % of control.
As to `COc1cc(OC)c(C(=O)CCl)c(O)c1Cl`, the T/C is 113 % of control under setting [14] and 110 % of control (dose: 66.0 mg/kg/injection, schedule: Q01DX009 (ip), vehicle: saline with Tween-80).
Consider `O=C1OI(O)c2ccccc21`, for which the T/C is 106 % of control under setting [7] and 106 % of control under setting [8].
With `CC(/C=N/Nc1ccccc1)=N\N=c1/scc(-c2ccc(C)cc2)n1C1CCCCC1`, the T/C is 94 % of control under setting [9], 96 % of control under setting [10] and 89 % of control under setting [11].
`N#Cc1c(-c2ccccc2)nc2n1CCS2`: the T/C by setting is: (dose: 100.0 mg/kg/injection, schedule: Q01DX001 (ip), vehicle: Klucel (hydroxypropylcellulose) (HPC)) 102 % of control; (dose: 200.0 mg/kg/injection, schedule: Q01DX001 (ip), vehicle: Klucel (hydroxypropylcellulose) (HPC)) 100 % of control; (dose: 400.0 mg/kg/injection, schedule: Q01DX001 (ip), vehicle: Klucel (hydroxypropylcellulose) (HPC)) 100 % of control.
Take `C=CCNc1nnc(-c2ccccc2)s1`: the T/C under setting [15] is 103 % of control; the T/C under setting [16] is 100 % of control; the T/C (dose: 200.0 mg/kg/injection, schedule: Q01DX009 (ip), vehicle: saline with Tween-80) is 100 % of control.
As to `CCOC(=Nc1ccc([N+](=O)[O-])cc1)SC(c1ccccc1)(c1ccccc1)c1ccccc1`, the T/C reads like this: under setting [9], 103 % of control; under setting [10], 91 % of control; under setting [11], 88 % of control.
`CCSc1nc2ccc(CN3C(=O)c4ccccc4C3=O)cc2s1`: the T/C is, setting by setting: under setting [1], 92 % of control; under setting [2], 89 % of control; under setting [3], 86 % of control.
For `COc1ccc(/C=C\C(=O)c2ccc(C(=O)/C=C/c3ccc(OC)cc3OC)cc2)c(OC)c1`, the T/C is, setting by setting: (dose: 12.5 mg/kg/injection, schedule: Q04DX003 (ip), vehicle: saline with Tween-80) 100 % of control; (dose: 25.0 mg/kg/injection, schedule: Q04DX003 (ip), vehicle: saline with Tween-80) 102 % of control; under setting [17], 92 % of control.
For `CN(C)[C@@H]1C(=O)C(C(=O)NCN(CCCl)CCCl)=C(O)[C@@]2(O)C(=O)C3=C(O)c4c(O)cccc4[C@@](C)(O)[C@H]3C[C@@H]12`, the T/C was 159 % of control (dose: 33.0 mg/kg/injection, schedule: Q04DX003 (ip), vehicle: saline with Tween-80); 154 % of control (dose: 44.0 mg/kg/injection, schedule: Q04DX003 (ip), vehicle: saline); 158 % of control and 172 % of control under setting [17]; 181 % of control (dose: 66.0 mg/kg/injection, schedule: Q04DX003 (ip), vehicle: saline); 168 % of control (dose: 75.0 mg/kg/injection, schedule: Q04DX003 (ip), vehicle: saline with Tween-80); 100 % of control under setting [18]. Further, the T/C (dose: 100.0 mg/kg/injection, schedule: Q04DX003 (ip), vehicle: saline) was 209 % of control.
Take `Cc1cc(C)cc(C(C)(C)C)c1`: the T/C is, setting by setting: under setting [18], 100 % of control; (dose: 200.0 mg/kg/injection, schedule: Q04DX003 (ip), vehicle: saline with Tween-80) 100 % of control.
Regarding `COCC1(C)CCCC2(C)C3=CC(O)CCC3CCC12` (stereo not given), the T/C (dose: 100.0 mg/kg/injection, schedule: Q01DX001 (ip), vehicle: saline) was 98 % of control; the T/C (dose: 200.0 mg/kg/injection, schedule: Q01DX001 (ip), vehicle: saline) was 97 % of control; the T/C (dose: 400.0 mg/kg/injection, schedule: Q01DX001 (ip), vehicle: saline) is 98 % of control.
As for `O=S(=O)(N/N=C/c1cccc(Cl)c1)c1ccccc1`, the T/C under setting [7] was 109 % of control; the T/C under setting [8] was 104 % of control; the T/C (dose: 240.0 mg/kg/injection, schedule: Q01DX005 (ip), vehicle: Klucel (hydroxypropylcellulose) (HPC)) was 105 % of control.
In the case of `CCn1c(=O)[nH]c(=O)c2conc21`, the T/C under setting [14] was 95 % of control, the T/C under setting [15] is 104 % of control and the T/C under setting [16] was 96 % of control.

For the origin of these results see PubChem BioAssay AID330 (DTP/NCI, 2004).
